Results published in patent US20120076781A1, “METHODS OF TREATING CANCERS WITH HER3 ANTISENSE OLIGONUCLEOTIDES” (ENZON PHARMACEUTICALS, INC., priority 2009, published 2012).
In the oligonucleotide strings, read from the 5' end, every base follows the letter of its sugar. An asterisk marks phosphorothioate; unmarked linkages are phosphodiester. Other units and linkages are bracketed, terminal groups are in braces. A string of capitals states the bases alone. l = locked nucleic acid (LNA); [5mC] = 5-methylcytosine; d = 2'-deoxy (DNA)

Key:
Assay type in all cases: cell-based
Settings in all cases: 25 nM
human HER2 mRNA = test: Down-regulation of HER2 mRNA in transfected 15PC3 cells, real-time PCR
Description: (§1) 15PC3: The human prostate cancer cell line 15PC3 was cultured in DMEM (Sigma)+10% fetal bovine serum (FBS)+2 mM Glutamax I+gentamicin (25 μg/ml).
(§2) The cells were treated with oligonucleotides using the cationic liposome formulation LipofectAMINE 2000 (Gibco) as transfection vehicle. Cells were seeded in 6-well cell culture plates (NUNC) and treated when 80-90% confluent. Oligomer concentrations ranged from 1 nM to 25 nM final concentration. Formulation of oligomer-lipid complexes was carried out essentially as described by the manufacturer using serum-free OptiMEM (Gibco) and a final lipid concentration of 5 μg/mL LipofectAMINE 2000. Cells were incubated at 37° C. for 4 hours and treatment was stopped by removal of oligomer-containing culture medium. Cells were washed and serum-containing medium was added. After oligomer treatment, cells were allowed to recover for 20 hours before they were harvested for RNA analysis.
(§3) Total RNA was extracted from cells transfected as described above and using the Qiagen RNeasy kit (Qiagen cat. no. 74104) according to the manufacturer's instructions. First strand synthesis was performed using Reverse Transcriptase reagents from Ambion according to the manufacturer's instructions.
(§4) For each sample 0.5 μg total RNA was adjusted to (10.8 μl) with RNase free H2O and mixed with 2 μl random decamers (50 μM) and 4 μl dNTP mix (2.5 mM each dNTP) and heated to 70° C. for 3 min after which the samples were rapidly cooled on ice. After cooling the samples on ice, 2 μl 10× Buffer RT, 1 μl MMLV Reverse Transcriptase (100 U/μl) and 0.25 μl RNase inhibitor (10 U/μl) was added to each sample, followed by incubation at 42° C. for 60 min, heat inactivation of the enzyme at 95° C. for 10 min, and then cooling the sample to 4° C.
(§5) The sample content of human HER3, EGFR and HER2 mRNA was quantified using the human HER3, EGFR and HER2 ABI Prism Pre-Developed TaqMan Assay Reagents (Applied Biosystems cat. no. Hs00951444_ml (HER3), Hs00193306_ml (EGFR) and Hs00170433_ml (HER2) according to the manufacturer's instructions.
(§6) Glyceraldehyde-3-phosphate dehydrogenase (GAPDH) mRNA quantity was used as an endogenous control for normalizing any variance in sample preparation. The sample content of human GAPDH mRNA was quantified using the human GAPDH ABI Prism Pre-Developed TaqMan Assay Reagent (Applied Biosystems cat. no. 4310884E) according to the manufacturer's instructions.
(§7) The cDNA from the first strand synthesis performed as described in Example 5 was diluted 2-20 times, and analyzed by real time quantitative PCR using Taqman 7500 FAST or 7900 FAST from Applied Biosystems. The primers and probe were mixed with 2× Taqman Fast Universal PCR master mix (2×) (Applied Biosystems Cat. #4364103) and added to 4 μl cDNA to a final volume of 10 μl. Each sample was analysed in duplicate. Assaying 2-fold dilutions of a cDNA that had been prepared on material purified from a cell line expressing the RNA of interest generated standard curves for the assays. Sterile H2O was used instead of cDNA for the no-template control. PCR program: 95° C. for 30 seconds, followed by 40 cycles of 95° C., 3 seconds, 60° C., 20-30 seconds. Relative quantities of target mRNA sequence were determined from the calculated Threshold cycle using the Applied Biosystems Fast System SDS Software Version 1.3.1.21. or SDS Software Version 2.3.
(§8) Oligonucleotides presented in Table 4 were evaluated for their potential to down-regulate HER3, EGFR and HER2 mRNA at concentrations of 1, 5 and 25 nM in 15PC3 cells (or HUH-7 as indicated by *) (see FIGS. 2, 3, 4 and 5). SEQ ID NOs: 235 and 236 were used as scrambled controls.
(§9) The data in Table 4 are presented as percentage down-regulation of mRNA relative to mock transfected cells at 25 nM. Lower-case letters represent DNA monomers, bold, upper-case letters represent β-D-oxy-LNA monomers. All cytosines in LNA monomers are 5-methylcytosines. Subscript “s” represents a phosphorothioate linkage.

human HER3 mRNA = test: Down-regulation of HER3 mRNA in transfected 15PC3 cells, real-time PCR
Description: as §1, §2, §3, §4, §5, §6, §7, §8, §9

human EGFR mRNA = test: Down-regulation of EGFR mRNA in transfected 15PC3 cells, real-time PCR
Description: as §1, §2, §3, §4, §5, §6, §7, §8, §9

| Substance | HER2: percentage down-regulation of mRNA relative to mock transfected cells (human HER2 mRNA) | HER3: percentage down-regulation of mRNA relative to mock transfected cells (human HER3 mRNA) | EGFR: percentage down-regulation of mRNA relative to mock transfected cells (human EGFR mRNA) |
| --- | --- | --- | --- |
| ASTSCScSaSaScSaScStStSgSaSCSCSA (antisense lA*lT*l[5mC]*dC*dA*dA*dC*dA*dC*dT*dT*dG*dA*l[5mC]*l[5mC]*lA) [SEQ ID NO: 176, β-D-oxy-LNA/DNA phosphorothioate gapmer antisense oligonucleotide targeting HER3] | 74.8% | 61.6% | 79.4% |
| CSASTStScSaSaSgStStScStStSCSAST (antisense l[5mC]*lA*lT*dT*dC*dA*dA*dG*dT*dT*dC*dT*dT*l[5mC]*lA*lT) [SEQ ID NO: 184, β-D-oxy-LNA/DNA phosphorothioate gapmer antisense oligonucleotide targeting HER3] |  | 81.1% |  |
| TSCSAScSaScScSaStSaSgScStSCSCSA (antisense lT*l[5mC]*lA*dC*dA*dC*dC*dA*dT*dA*dG*dC*dT*l[5mC]*l[5mC]*lA) [SEQ ID NO: 174, β-D-oxy-LNA/DNA phosphorothioate gapmer antisense oligonucleotide targeting HER3] | 94.8% |  | 86.4% |
| TSCSASaStScSaStScScSaSaScSASCST (antisense lT*l[5mC]*lA*dA*dT*dC*dA*dT*dC*dC*dA*dA*dC*lA*l[5mC]*lT) [SEQ ID NO: 178, β-D-oxy-LNA/DNA phosphorothioate gapmer antisense oligonucleotide targeting HER3] | 88.6% | 76.7% | 0% |
| GSCSCScSaSgScSaScStSaSaStSTSTSC (antisense lG*l[5mC]*l[5mC]*dC*dA*dG*dC*dA*dC*dT*dA*dA*dT*lT*lT*l[5mC]) [SEQ ID NO: 186, β-D-oxy-LNA/DNA phosphorothioate gapmer antisense oligonucleotide targeting HER3] |  | 79.9% |  |
| CSASTSgStSaSgSaScSaStScSaSASTST (l[5mC]*lA*lT*dG*dT*dA*dG*dA*dC*dA*dT*dC*dA*lA*lT*lT; antisense) [SEQ ID NO: 179] | 75.6% | 70.5% | 52.6% |
| CSTSCScSaSgSaScSaStScSaScSTSCST (antisense l[5mC]*lT*l[5mC]*dC*dA*dG*dA*dC*dA*dT*dC*dA*dC*lT*l[5mC]*lT) [SEQ ID NO: 170, β-D-oxy-LNA/DNA phosphorothioate gapmer antisense oligonucleotide targeting HER3] | 65.8% |  | 91.5% |
| CSASTSaScStScScStScSaStScSTSTSC (antisense l[5mC]*lA*lT*dA*dC*dT*dC*dC*dT*dC*dA*dT*dC*lT*lT*l[5mC]) [SEQ ID NO: 193, β-D-oxy-LNA/DNA phosphorothioate gapmer antisense oligonucleotide targeting HER3] |  | 64% |  |
| CSASASgSgScStScSaScSaScSaSTSCST (antisense l[5mC]*lA*lA*dG*dG*dC*dT*dC*dA*dC*dA*dC*dA*lT*l[5mC]*lT) [SEQ ID NO: 182, β-D-oxy-LNA/DNA phosphorothioate gapmer antisense oligonucleotide targeting HER3] |  | 74.6% |  |
| ASTSASgScStScScSaSgSaScSaSTSCSA (antisense lA*lT*lA*dG*dC*dT*dC*dC*dA*dG*dA*dC*dA*lT*l[5mC]*lA) [SEQ ID NO: 173, β-D-oxy-LNA/DNA phosphorothioate gapmer antisense oligonucleotide targeting HER3] | 39.2% |  | 96.4% |
| CSASGSaScSaStScSaScStScStSGSGST (antisense l[5mC]*lA*lG*dA*dC*dA*dT*dC*dA*dC*dT*dC*dT*lG*lG*lT) [SEQ ID NO: 171, β-D-oxy-LNA/DNA phosphorothioate gapmer antisense oligonucleotide targeting HER3] | 2.8% | 70.6% | 84.2% |
| CSASTScScSaSaScSaScStStSgSASCSC (antisense l[5mC]*lA*lT*dC*dC*dA*dA*dC*dA*dC*dT*dT*dG*lA*l[5mC]*l[5mC]) [SEQ ID NO: 175, β-D-oxy-LNA/DNA phosphorothioate gapmer antisense oligonucleotide targeting HER3] | 76.9% | 65.5% | 86.1% |
| CSASAStScSaStScScSaSaScSaSCSTST (antisense l[5mC]*lA*lA*dT*dC*dA*dT*dC*dC*dA*dA*dC*dA*l[5mC]*lT*lT) [SEQ ID NO: 177, β-D-oxy-LNA/DNA phosphorothioate gapmer antisense oligonucleotide targeting HER3] | 63.4% | 51.1% | 0% |
